*1 amine or outer side, *2 acyl side, *3 side chain or, on linkers, in order; H or OH if unused. Where a SMILES comes first, the peptide text is derived from it. Bridges are numbered along the chain shown (N, C = ends). [ ]: non-standard residue; d: D form. The star is where a group is joined. hPhe(3,5-F2-4-CF3) = N[C@@H](CCc1cc(F)c(C(F)(F)F)c(F)c1)C(=O)O; hPhe(3-Cl-4-CF3) = N[C@@H](CCc1ccc(C(F)(F)F)c(Cl)c1)C(=O)O; NPrPhe(4-CF3) = CCCN[C@@H](Cc1ccc(C(F)(F)F)cc1)C(=O)O; X16 = O=C([C@@H](N[*:1])C1CC(F)(F)C1)[*:2]; NMeGly(cPent) = CN[C@H](C(=O)O)C1CCCC1; Hyp = O=C(O)[C@@H]1C[C@@H](O)CN1; NMeD = CN[C@@H](CC(=O)O)C(=O)O; NMeL = CN[C@@H](CC(C)C)C(=O)O; Morpholide = C1CN(*)CCO1; Ac5c = NC1(C(=O)O)CCCC1; Aze = O=C(O)[C@@H]1CCN1; Ac4c = NC1(C(=O)O)CCC1; NEtG = CCNCC(=O)O; Sar = CNCC(=O)O
Experiments:
[1] = target: GDP-bound HRAS wild-type protein (Homo sapiens, UniProt P01112); experiment: Binding to HRAS by surface plasmon resonance (SPR), Single Cycle Kinetics; conditions: SPR
[2] = target: GDP-bound NRAS wild-type protein (Homo sapiens, UniProt P01111); experiment: Binding to NRAS by surface plasmon resonance (SPR), Single Cycle Kinetics; conditions: SPR
[3] = KD ratio, GDP-bound HRAS wild-type vs GDP-bound KRAS wild-type
[4] = KD ratio, GDP-bound NRAS wild-type vs GDP-bound KRAS wild-type

Sequence of GDP-bound NRAS wild-type protein (P01111 whole entry): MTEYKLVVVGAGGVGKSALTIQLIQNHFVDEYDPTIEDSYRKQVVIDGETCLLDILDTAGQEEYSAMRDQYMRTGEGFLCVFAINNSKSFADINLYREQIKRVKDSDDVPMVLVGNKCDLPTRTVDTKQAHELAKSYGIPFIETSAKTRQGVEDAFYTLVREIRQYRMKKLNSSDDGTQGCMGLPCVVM
Sequence of GDP-bound HRAS wild-type protein (P01112 whole entry): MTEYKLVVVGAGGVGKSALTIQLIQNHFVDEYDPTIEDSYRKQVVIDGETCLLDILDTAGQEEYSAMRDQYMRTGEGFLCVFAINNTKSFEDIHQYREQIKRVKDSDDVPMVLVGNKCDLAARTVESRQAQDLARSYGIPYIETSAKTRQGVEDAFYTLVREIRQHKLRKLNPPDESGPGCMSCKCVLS

In the case of `CCO[C@@H]1C[C@H]2C(=O)NC3(CCC3)C(=O)N(C)[C@@H](C3CCCC3)C(=O)N(C)[C@H](C(=O)N(C)C)CC(=O)N(C)[C@@H](CC)C(=O)N[C@@H]([C@@H](C)CC)C(=O)N3CC[C@H]3C(=O)N(C)[C@H]3C/C=C\CCN(C3=O)[C@@H](Cc3ccc(C(F)(F)F)cc3)C(=O)N(C)CC(=O)N[C@@H](CCc3cc(F)c(C(F)(F)F)c(F)c3)C(=O)N2C1` [PP0984], the “HRAS/KRAS (ratio of KD value with respect to HRAS to KD value with respect to KRAS)” value [1, 3] is reported as “A (a compound having 10 or more and less than 20 is denoted as A)” and the “NRAS/KRAS (ratio of KD value with respect to NRAS to KD value with respect to KRAS)” value [2, 4] is reported as “A (a compound having 10 or more and less than 20 is denoted as A)”.

With `C#CC[C@H]1C(=O)N[C@@H]([C@@H](C)CC)C(=O)N(C)CC(=O)N(C)[C@H]2C/C=C\CCN(C2=O)[C@@H](Cc2ccc(C(F)(F)F)cc2)C(=O)N(C)CC(=O)N[C@@H](CCc2cc(F)c(C(F)(F)F)c(F)c2)C(=O)N2C[C@H](F)C[C@H]2C(=O)NC2(CC(C)(C)C2)C(=O)N(C)[C@@H](C2CCCC2)C(=O)N(C)[C@H](C(=O)N(C)CCC)CC(=O)N1C` [PP1692] the “HRAS/KRAS (ratio of KD value for HRAS to KD value for KRAS)” value [1, 3] was “A (a compound having 10 or more and less than 20 is denoted as A)” and the “NRAS/KRAS (ratio of KD value for NRAS to KD value for KRAS)” value [2, 4] was “AA (a compound having 20 or more is denoted as AA)”.

`CCO[C@@H]1C[C@H]2C(=O)NC3(CC(C)(C)C3)C(=O)N(C)[C@@H](C3CCCC3)C(=O)N(C)[C@H](C(=O)N3CCCCC3)CC(=O)N(C)[C@H]3CCCCCc4ccc(cc4)C[C@@H](C(=O)N(C)CC(=O)N[C@@H](CCc4ccc(C(F)(F)F)c(OC)c4)C(=O)N2C1)N1CC/C=C\C[C@@H](C1=O)N(C)C(=O)CN(C)C(=O)[C@H]([C@@H](C)CC)NC3=O` [PP3036, (1S,7S,11R,13S,19S,22S,26S,29S,35S,37Z)-19-cyclopentyl-11-ethoxy-7-[2-[3-methoxy-4-(trifluoromethyl)phenyl]ethyl]-3,3′,3′,18,21,25,31,34-octamethyl-29-[(1S)-1-methylpropyl]-22-(piperidine-1-carbonyl)spiro[3,6,9,15,18,21,25,28,31,34,41-undecazapentacyclo[24.15.10.2^43,46.1^35,41.0^9,13]tetrapentaconta-37,43(53),44,46(52)-tetraene-16,1′-cyclobutane]-2,5,8,14,17,20,24,27,30,33,54-undecone] was tested, and the “HRAS/KRAS (ratio of KD value with respect to GDP-bound HRAS wild-type protein to KD value with respect to KRAS)” value ([1]; GDP-bound wild-type proteins) was “B (a compound having 3 or more and less than 10 is denoted as B)” and the “NRAS/KRAS (ratio of KD value with respect to GDP-bound NRAS wild-type protein to KD value with respect to KRAS)” value ([2]; GDP-bound wild-type proteins) was “A (a compound having 10 or more and less than 20 is denoted as A)”.

With `CCO[C@@H]1C[C@H]2C(=O)NC3(CCC3)C(=O)N(C)[C@@H](C(CC)CC)C(=O)N(C)[C@H](C(=O)N(C)C)CC(=O)N(C)[C@@H](C)C(=O)N[C@@H]([C@@H](C)CC)C(=O)N(C)CC(=O)N(C)[C@H]3C/C=C\CCN(C3=O)[C@@H](Cc3ccc(C(F)(F)F)cc3)C(=O)N(C)CC(=O)N[C@@H](CCc3cc(F)c(C(F)(F)F)c(F)c3)C(=O)N2C1` [PP1199] the “HRAS/KRAS (ratio of KD value with respect to HRAS to KD value with respect to KRAS)” value [1, 3] was “A (a compound having 10 or more and less than 20 is denoted as A)” and the “NRAS/KRAS (ratio of KD value with respect to NRAS to KD value with respect to KRAS)” value [2, 4] was “A (a compound having 10 or more and less than 20 is denoted as A)”.

With `CC[C@H](C)[C@@H]1NC(=O)[C@H](CC(C)C)N(C)C(=O)C[C@@H](C(=O)N2CCOCC2)N(C)C(=O)[C@H](C2CCCC2)NC(=O)C2(CCCC2)NC(=O)[C@@H]2CCCN2C(=O)[C@H](CCc2cc(F)c(C(F)(F)F)c(F)c2)NC(=O)CN(C)C(=O)[C@H](Cc2ccc(C(F)(F)F)cc2)N2CCCC[C@@H](C2=O)N(C)C(=O)CN(C)C1=O` [PP0540] the “HRAS/KRAS (ratio of KD value with respect to GDP-bound HRAS wild-type protein to KD value with respect to KRAS)” value [1] was “B (a compound having 3 or more and less than 10 is denoted as B)” and the “NRAS/KRAS (ratio of KD value with respect to GDP-bound NRAS wild-type protein to KD value with respect to KRAS)” value [2] was “B (a compound having 3 or more and less than 10 is denoted as B)”.

For `CCCN1C(=O)CN(C)C(=O)CN(CC)C(=O)[C@H]([C@@H](C)CC)NC(=O)[C@H](CC(C)C)N(C)C(=O)C[C@@H](C(=O)N(C)C)N(C)C(=O)[C@H](C2CCCC2)N(C)C(=O)C2(CCC2)NC(=O)[C@@H]2C[C@@H](OCC)CN2C(=O)[C@H](CCc2ccc(C(F)(F)F)c(Cl)c2)NC(=O)CN(C)C(=O)[C@@H]1Cc1ccc(C(F)(F)F)cc1` [PP0428] ([NMeL]I[NEtG][Sar][NPrPhe(4-CF3)][Sar][hPhe(3-Cl-4-CF3)][Hyp](Et)[Ac4c][NMeGly(cPent)][NMeD]-NMe2; lactam N-11), the “HRAS/KRAS (ratio of KD value with respect to GDP-bound HRAS wild-type protein to KD value with respect to KRAS)” value [1] was “C (A compound having a KD ratio of 0.1 or more and less than 3 is denoted as C)” and the “NRAS/KRAS (ratio of KD value with respect to GDP-bound NRAS wild-type protein to KD value with respect to KRAS)” value [2] was “B (a compound having 3 or more and less than 10 is denoted as B)”.

`CCCN1C(=O)CN(C)C(=O)[C@@H]2CCN2C(=O)[C@H](C2CC(F)(F)C2)NC(=O)[C@H](CC(C)C)N(C)C(=O)C[C@@H](C(=O)N2CCOCC2)N(C)C(=O)[C@H](C2CCCC2)N(C)C(=O)C2(CCCC2)NC(=O)[C@@H]2CCCN2C(=O)[C@H](CCc2cc(F)c(C(F)(F)F)c(F)c2)NC(=O)CN(C)C(=O)[C@@H]1Cc1ccc(C(F)(F)F)cc1` [PP0786] ([NMeL][X16][Aze][Sar][NPrPhe(4-CF3)][Sar][hPhe(3,5-F2-4-CF3)]P[Ac5c][NMeGly(cPent)][NMeD]-Morpholide; lactam N-11) was tested, and the “HRAS/KRAS (ratio of KD value with respect to GDP-bound HRAS wild-type protein to KD value with respect to KRAS)” value [1] was “B (a compound having 3 or more and less than 10 is denoted as B)” and the “NRAS/KRAS (ratio of KD value with respect to GDP-bound NRAS wild-type protein to KD value with respect to KRAS)” value [2] was “B (a compound having 3 or more and less than 10 is denoted as B)”.

— patent US20250230193A1, “CYCLIC COMPOUND HAVING SELECTIVE KRAS INHIBITORY EFFECT ON HRAS AND NRAS” (CHUGAI SEIYAKU KABUSHIKI KAISHA, priority 2022, published 2025)
